Source: patent US12280037B2, “Method and pharmaceutical composition for treating or preventing trichomoniasis and uses thereof” (EVOFEM BIOSCIENCES, INC., priority 2020, dated 2025)
Converted amounts (≈) assume the structure as drawn. Read-outs that look alike come from different tables or passages of the source. One block for each compound: values may come before it.

Legend:
[1] = EE2 plasma pharmacokinetics alone and with SYM-1219 2 grams (Example 2, Part B); assay type: in vivo, human
clinical = conditions: female, human, plasma, Mean (% CV); for AUC(0-t): NET AUC0-t; for AUC(0-inf): NET AUC0-∞; for Cmax: NET Cmax
[2] = CDC 2015 Guidelines - Trichomoniasis; cited from earlier work
T. vaginalis = conditions: cited from earlier work; for Cure rates in randomized clinical trials of recommended regimens: CDC 2015 Guidelines - Trichomoniasis
[3] = system: clinical isolates of T. vaginalis; assay: Susceptibility testing, minimal lethal concentration (MLC), aerobic; assay type: cell-based, Trichomonas vaginalis
Procedure: Susceptibility testing was conducted with one hundred (100) clinical isolates of T. vaginalis.
Archived, de-identified, clinical isolates of T. vaginalis that were banked in liquid nitrogen were used for this study. The samples had been collected between July 2015 and June 2017, in accordance with institutional review board guidelines, and all patients had consented to the storage and use of their samples for subsequent testing. […] In brief, trichomonads were grown in Diamond's medium 1025 (containing trypticase soy broth, yeast extract, maltose, and calf serum) adjusted to pH 5.9 and supplemented with streptomycin at 1 g/liter and penicillin G at 100 U/ml. A hemocytometer was used to count the trichomonad population and to adjust it to a concentration of 66,666 cells/ml. Isolates were tested in microtiter plates under aerobic conditions. […] Plates were then incubated at 37° C. for 46 hours to 50 hours and read with a Zeiss Axiovert inverted microscope. The concentration of drug in the microplate wells in which no motile trichomonads were observed was reported as the MLC. […] Low-level resistance was defined as an aerobic MLC of 50 μg/ml to 100 μg/ml, moderate-level resistance as an aerobic MLC of 200 μg/ml, and high-level resistance as an aerobic MLC of >400 μg/ml. The MLCs for metronidazole and secnidazole were analyzed using the Wilcoxon signed-rank test to evaluate the differences between treatments.
Each well of a 96-well plate was filled with 150 μL of T. vaginalis suspension in Diamond's growth media (10^4 trichomonads). […] Cultures were visually assessed for survival, defined by observation of motility, through a 100× inverted microscope.

[4] = Group B1 (SYM-1219 2 grams co-administered on Day 1)
[5] = Group B1: Period 2 (SYM-1219 2 grams same day) vs Period 1 (EE2/NET alone)
[6] = Group B1 Period 1: EE2/NET alone
[7] = Group B1 Period 2: EE2/NET followed by SYM-1219 2 grams on Day 1
[8] = Group B2 (EE2/NET 1 day after SYM-1219 2 grams)
[9] = Group B2: Period 2 (EE2/NET 1 day after SYM-1219 2 grams) vs Period 1 (EE2/NET alone)
[10] = Group B2 Period 1: EE2/NET alone
[11] = Group B2 Period 2: SYM-1219 2 grams on Day 1, EE2/NET on Day 2
[12] = meta-analysis of six published studies
[13] = 100 clinical T. vaginalis isolates
[14] = 100 clinical T. vaginalis isolates, aerobic, 46-50 h

Change in EE2 AUC [1, 4]: no change
EE2 Cmax reduced by [1, 4]: 29%
EE2 AUC0-t, Geometric LSMean % Ratio (SE), 100*Test/Reference [1, 5]: 94.26 (2.683) %
EE2 AUC0-∞, Geometric LSMean % Ratio (SE), 100*Test/Reference [1, 5]: 105.37 (4.565) %
EE2 Cmax, Geometric LSMean % Ratio (SE), 100*Test/Reference [1, 5]: 71.07 (4.951) %
EE2 AUC0-t, Mean (% CV) [1, 6]: 643.67 (23.85) h*pg/mL
EE2 Cmax, Geometric Least Squares (LS) Means (SE) [1, 6]: 77.92 (3.839) pg/mL
EE2 Cmax, Mean (% CV) [1, 6]: 80.63 (26.84) pg/mL
EE2 AUC0-t, Geometric Least Squares (LS) Means (SE) [1, 7]: 590.74 (11.892) h*pg/mL
EE2 Cmax, Geometric Least Squares (LS) Means (SE) [1, 7]: 55.38 (2.728) pg/mL
EE2 Cmax, Mean (% CV) [1, 7]: 59.88 (42.19) pg/mL
EE2 PK alteration [1, 8]: not altered
EE2 AUC0-t, Geometric LSMean % Ratio (SE), 100*Test/Reference [1, 9]: 99.04 (2.291) %
EE2 AUC0-∞, Geometric LSMean % Ratio (SE), 100*Test/Reference [1, 9]: 93.32 (3.570) %
EE2 Cmax, Geometric LSMean % Ratio (SE), 100*Test/Reference [1, 9]: 104.96 (4.034) %
EE2 AUC0-t, Geometric Least Squares (LS) Means (SE) [1, 10]: 649.96 (10.631) h*pg/mL
EE2 AUC0-t, Mean (% CV) [1, 10]: 680.48 (28.91) h*pg/mL
EE2 AUC0-t, Geometric Least Squares (LS) Means (SE) [1, 11]: 643.74 (10.529) h*pg/mL
EE2 Cmax, Geometric Least Squares (LS) Means (SE) [1, 11]: 87.16 (2.369) pg/mL
Structure (SMILES): C#C[C@]1(O)CC[C@H]2[C@@H]3CCc4cc(O)ccc4[C@H]3CC[C@@]21C [EE2, ethinyl estradiol]

NET Cmax, AUC0-t or AUC0-∞ increased by (EE2/NET administered 1 day after SYM-1219): 9-16%
NET Cmax and AUC increased [4]: 13%
NET AUC0-t, Geometric LSMean % Ratio (SE), 100*Test/Reference [5]: 115.52 (5.828) %
NET AUC0-∞, Geometric LSMean % Ratio (SE), 100*Test/Reference [5]: 116.27 (6.032) %
NET Cmax, Geometric LSMean % Ratio (SE), 100*Test/Reference [5]: 113.18 (7.958) %
NET λz, Mean [6]: 0.07709 h⁻¹
NET λz, Median [6]: 0.07966 h⁻¹
NET t1/2, Median [7]: 9.12 h
NET λz, Mean [7]: 0.07886 h⁻¹
NET λz, Median [7]: 0.07642 h⁻¹
Change in NET AUC [8]: no change
NET Cmax increased by [8]: 16%
NET AUC0-t, Geometric LSMean % Ratio (SE), 100*Test/Reference [9]: 110.78 (4.104) %
NET AUC0-∞, Geometric LSMean % Ratio (SE), 100*Test/Reference [9]: 108.75 (4.207) %
NET Cmax, Geometric LSMean % Ratio (SE), 100*Test/Reference [9]: 116.46 (8.178) %
NET AUC0-∞, Median [10]: 47.35 ng·h/mL
NET t1/2, Median [10]: 9.29 h
NET λz, Mean [10]: 0.07369 h⁻¹
NET λz, Median [10]: 0.07458 h⁻¹
NET AUC0-t, Median [11]: 44.53 ng·h/mL
NET Cmax, Mean (% CV) [11]: 10.69 (48.34) ng/mL
NET Cmax, Mean (SD) [11]: 10.69 (5.169) ng/mL
NET Tmax, Median [11]: 1.000 h
NET t1/2, Median [11]: 9.19 h
NET λz, Mean [11]: 0.07685 h⁻¹
NET λz, Median [11]: 0.07539 h⁻¹
NET Cmax, AUC0-t or AUC0-∞ increased by (SYM-1219 administered immediately after EE2/NET): 13-16%
AUC(0-t) (clinical; [6]): 49.4 ng·h/mL
AUC(0-t) (clinical; [7]): 53.5 ng·h/mL
AUC(0-t) (clinical; [10]): 61.4 ng·h/mL
AUC(0-t) (clinical; [11]): 61.2 ng·h/mL
AUC(0-inf) (clinical; [6]): 57.8 ng·h/mL
AUC(0-inf) (clinical; [7]): 62.4 ng·h/mL
AUC(0-inf) (clinical; [10]): 75 ng·h/mL
AUC(0-inf) (clinical; [11]): 71.5 ng·h/mL
Cmax (clinical; [6]): 9.18 ng/mL
Cmax (clinical; [7]): 10.1 ng/mL
Cmax (clinical; [10]): 9.63 ng/mL
Structure (SMILES): C#C[C@]1(O)CC[C@H]2[C@@H]3CCC4=CC(=O)CC[C@@H]4[C@H]3CC[C@@]21C [NET, norethindrone]

Structure (SMILES): Cc1ncc([N+](=O)[O-])n1CCO [metronidazole]
Half-life [2]: 7.3 h
Cure rates in randomized clinical trials of recommended regimens (T. vaginalis): 84%-98%
Cure rate for single dose treatment (T. vaginalis; HIV-positive women with trichomoniasis (Kissinger 2010)): 83.2%
Increase in treatment failures with single-dose 2-gram vs 7-day dose (500 mg twice daily) (T. vaginalis; HIV-uninfected, non-pregnant women, 2018 comparison study): 45%
Fewer treatment failures with 7 day-dose compared to single-dose (T. vaginalis; [12]): 46%
Test of cure (TOC) positive rates after single-dose (T. vaginalis; [12]): 6.2% to 18.0%
Isolates exhibiting moderate resistance (aerobic MLC 200 μg/ml) [3, 13]: 1%
Prevalence of low-level resistance (aerobic MLC 50 μg/ml to 100 μg/ml) [3, 13]: 7%
MLC, mean (±SD) among all isolates [3, 14]: 13.5 ± 26.9 µg/mL (≈ 78.9 µM)
MLC, median [3, 14]: 6.3 µg/mL (≈ 36.8 µM)
MLC in the one isolate with a higher MLC for secnidazole than for metronidazole ([3]; single clinical isolate): 1.6 µg/mL

Structure (SMILES): CCS(=O)(=O)CCn1c([N+](=O)[O-])cnc1C [tinidazole]
Half-life [2]: 12.5 h
Cure rates in randomized clinical trials of recommended regimens (T. vaginalis): 92%-100%
